According to patent publication US20090163461A1, “Ligand for Vesicular Acetylcholine Transporter” (priority 2005, published 2009):
Read-outs that look alike come from different tables or passages of the source.

Assays:
VAChT in the brain = biological target: T1, VAChT in the brain (Rattus norvegicus, UniProt Q62666); assay: Inhibitory effects of non-radioactive ligands on cerebral distribution of (−)-[^11C]-o-methylvesamicol in rats; format: in vivo; conditions: 30 minutes; for local accumulation of (−)-[^11C]-o-MeVES in the brain, effect of co-administered non-radioactive ligand: 500 nmol per kg i.v.; for Radioactivity level (% ID/g) Blood / Radioactivity level (% ID/g) Brain (other than above) / Radioactivity level (% ID/g) Cerebellum / Radioactivity level (% ID/g) Cerebral cortex / Radioactivity level (% ID/g) Hippocampus / Radioactivity level (% ID/g) Medulla oblongata / Radioactivity level (% ID/g) Striate body / Radioactivity level (% ID/g) Brain (whole): tracer (−)-[^11C]-o-MeVES 20 MBq i.v. together with ligand 500 nmol per kg, mean ± S.D. n = 4-6
T1 construct: from tissue; host or cells: brain of living rats, tissue counted or sectioned after killing
T1 sequence (Q62666 1-530): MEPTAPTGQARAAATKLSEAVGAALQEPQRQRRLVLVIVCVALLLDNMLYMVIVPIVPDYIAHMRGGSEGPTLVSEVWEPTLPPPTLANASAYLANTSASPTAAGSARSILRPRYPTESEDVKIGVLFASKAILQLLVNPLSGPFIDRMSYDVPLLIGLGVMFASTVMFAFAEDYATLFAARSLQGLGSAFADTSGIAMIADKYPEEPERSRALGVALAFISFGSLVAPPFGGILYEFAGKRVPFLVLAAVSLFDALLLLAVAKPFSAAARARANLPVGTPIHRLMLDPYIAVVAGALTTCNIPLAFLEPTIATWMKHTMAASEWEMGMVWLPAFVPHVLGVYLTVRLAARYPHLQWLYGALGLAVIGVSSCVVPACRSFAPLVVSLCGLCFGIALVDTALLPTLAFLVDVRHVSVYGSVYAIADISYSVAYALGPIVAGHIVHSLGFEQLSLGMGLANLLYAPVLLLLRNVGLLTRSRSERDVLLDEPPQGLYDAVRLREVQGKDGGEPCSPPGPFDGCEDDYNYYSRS
Method: To the caudal vein of each rat, an injection (0.1 ml) containing 20 MBq of (−)-[^11C]-o-MeVES and 0.1 ml (equivalent to 500 nmol per kg body weight) of a DMSO solution containing each of the above-described non-radioactive ligands were administered together. Thirty minutes after the administration, the rats were killed by cervical dislocation, and blood was drawn from the heart using a syringe, after which the brain was extirpated from each rat. The extirpated brain was divided into the cerebral cortex, hippocampus, striate body, cerebellum, medulla oblongata, and other parts, and the radioactivity in each tissue was measured using a gamma counter. Each tissue was also weighed.
For control, an injection (0.1 ml) containing 20 MBq of (−)-[^11C]-o-MeVES and a ligand-free DMSO solution (0.1 ml) were administered to the caudal vein of each rat, and measurements were taken in the same manner as described above.

VAChT [1] = biological target: T2, VAChT (Rattus norvegicus, UniProt Q62666); assay: biochemical
T2 sequence (Q62666 1-530): T1 sequence (Q62666 1-530)
Method: (§1) The affinity of (−)-o-MeVES for VAChT and sigma receptors (σ-1, σ-2) was examined by in vitro drug inhibition experiments.
(§2) First, the brain and liver were extirpated from a rat, a 0.32 M sucrose solution in an amount by weight 10 times the weight of each tissue was added, and each tissue was ground using a Teflon homogenizer. Next, the ground tissue solution was centrifuged at 1000 g for 10 minutes, and the precipitated fraction was removed. Furthermore, the supernatant was centrifuged at 55000 g for 60 minutes, and the precipitated tissue was added to, and suspended in, 50 mM Tris-HCl buffer solution/0.32 M sucrose solution (pH 7.8).
For each test compound, samples at 10 different concentrations (concentrations set at 10 levels in the range of 10^−5 M to 10^−10 M) were prepared.
For each sample, the RI (100 μl), sample (50 μl), 50 mM Tris-HCl buffer solution (pH 7.8) (100 μl), 2 μM DTG solution (50 μl) (200 nM as the final concentration), and, finally, the prepared rat cerebral membrane (500-900 μg (protein weight)/200 μl) was added to a test tube, and they were reacted at 37° C. for 60 minutes. The test tube was cooled with ice to stop the reaction, and the rat cerebral membrane was immediately adsorbed to a glass filter using a cell harvester. After the glass filter was washed with 50 mM Tris-HCl buffer solution (pH 7.8) (5 ml) three times, the rat cerebral membrane, together with the glass filter, was placed in a liquid scintillation vial, and a liquid scintillator was added, after which radioactivity was measured using a liquid scintillation counter.
(§3) Ki=IC50/(1+C/Kd)(nM) formula

σ-2 receptor = biological target: T3, σ-2 receptor (Rattus norvegicus, UniProt Q5U3Y7); assay: biochemical; format: binding
T3 construct: except that rat liver membranes (300-600 μg (protein weight)/200 μl) were used; from tissue; host or cells: rat liver membranes
T3 sequence (Q5U3Y7 1-176): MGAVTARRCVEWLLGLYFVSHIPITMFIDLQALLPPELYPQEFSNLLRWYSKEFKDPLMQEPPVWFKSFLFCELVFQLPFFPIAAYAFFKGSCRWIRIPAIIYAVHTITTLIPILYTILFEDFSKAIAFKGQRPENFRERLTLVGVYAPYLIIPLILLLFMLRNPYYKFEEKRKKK
Method: as §1, §2
3 nM [^3H]DTG ([^3H]-1,3-di-o-tolylguanidine) was used as the radioisotope (RI) for the σ-2 receptor. […] A test was performed in the same procedures as those for the test of affinity for the […] except that rat liver membranes (300-600 μg (protein weight)/200 μl) were used.
as §3

σ-1 receptor = σ-1 receptor (Rattus norvegicus, UniProt Q9R0C9); assay: biochemical
Method: as §1, §2, §3

δ-2 receptor = biological target: T4, δ-2 receptor (Rattus norvegicus, UniProt Q5U3Y7); conditions: in vitro, rat brain; mean±standard deviation; Life Sciences 71 (2002) 1591-1598; read-out: Ki value, affinity for δ-2 receptor; cited from earlier work
T4 construct: as a result of in vitro experiments using the rat brain
T4 sequence (Q5U3Y7 1-176): T3 sequence (Q5U3Y7 1-176)

δ-1 receptor = biological target: T5, δ-1 receptor (Rattus norvegicus, UniProt Q9R0C9); conditions: in vitro, rat brain; mean±standard deviation; Life Sciences 71 (2002) 1591-1598; read-out: Ki value, affinity for δ-1 receptor; cited from earlier work
T5 construct: as a result of in vitro experiments using the rat brain; host or cells: rat brain

VAChT [2] = biological target: T2, VAChT; design: the brain and liver were extirpated from a rat; from tissue; host or cells: rat brain (cerebral membranes); conditions: in vitro, rat brain; mean±standard deviation; Life Sciences 71 (2002) 1591-1598; read-out: Ki value, affinity for VAChT; cited from earlier work
[3] = compared with (−)-o-iodovesamicol

Sequence of σ-1 receptor (Q9R0C9 whole entry): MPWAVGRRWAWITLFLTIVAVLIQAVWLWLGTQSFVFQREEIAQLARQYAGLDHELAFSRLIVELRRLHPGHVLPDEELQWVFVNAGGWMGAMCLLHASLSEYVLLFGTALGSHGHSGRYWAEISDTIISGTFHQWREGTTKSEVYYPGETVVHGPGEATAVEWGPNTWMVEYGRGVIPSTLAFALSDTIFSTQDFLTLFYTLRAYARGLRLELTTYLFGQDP
T5 sequence (Q9R0C9 whole entry): as above

SMILES	local accumulation of (−)-[^11C]-o-MeVES in the brain, effect of co-administered non-radioactive ligand (VAChT in the brain)	Radioactivity level (% ID/g) Blood (VAChT in the brain) [% ID/g]	Radioactivity level (% ID/g) Brain (other than above) (VAChT in the brain) [% ID/g]	Radioactivity level (% ID/g) Cerebellum (VAChT in the brain) [% ID/g]	Radioactivity level (% ID/g) Cerebral cortex (VAChT in the brain) [% ID/g]	Radioactivity level (% ID/g) Hippocampus (VAChT in the brain) [% ID/g]	Radioactivity level (% ID/g) Medulla oblongata (VAChT in the brain) [% ID/g]	Radioactivity level (% ID/g) Striate body (VAChT in the brain) [% ID/g]	Radioactivity level (% ID/g) Brain (whole) (VAChT in the brain) [% ID/g]	IC50 (VAChT [1]) [nM]	Ki (VAChT [1]) [nM]	IC50 (σ-2 receptor) [nM]	Ki (σ-2 receptor) [nM]	further results
CC(C)=CCN1CCC2(C)c3cc(O)ccc3CC1C2C (single isomer, unassigned; (+)) [(+)-Pentazocine, (+)-pentazocine]	not inhibited	0.12 ± 0.01	2.52 ± 0.43	2.07 ± 0.31	2.72 ± 0.40	2.59 ± 0.44	2.83 ± 0.45	2.39 ± 0.40	2.52 ± 0.40	830	315 ± 121	–	–	–
COc1ccc(CCN2CCN(CCCc3ccccc3)CC2)cc1OC [SA4503, 1-(3,4-dimethoxyphenethyl)-4-(3-phenyl-propyl)piperazine]	inhibited	0.14 ± 0.02	0.55 ± 0.05	0.52 ± 0.07	0.62 ± 0.08	0.84 ± 0.18	0.66 ± 0.08	0.61 ± 0.07	0.59 ± 0.07	120	50.2 ± 7.2	280	242 ± 17	–
OC1CCCCC1N1CCC(c2ccccc2)CC1 (single isomer, unassigned; (-)) [(−)-Vesamicol, 2-(4-Phenylpiperidino)-cyclohexanol]	inhibited	0.13 ± 0.01	0.69 ± 0.04	0.62 ± 0.03	0.71 ± 0.04	0.66 ± 0.05	0.80 ± 0.08	0.72 ± 0.03	0.70 ± 0.04	13	4.4 ± 0.6	420	346 ± 37	–
Cc1ccccc1C1CCN(C2CCCCC2O)CC1 (single isomer, unassigned; (-)) [(−)-o-MeVES, (−)-2-(4-(2-methylphenyl)piperidino)cyclohexanol]	inhibited	0.14 ± 0.02	0.63 ± 0.10	0.60 ± 0.07	0.70 ± 0.10	0.71 ± 0.08	0.74 ± 0.09	0.71 ± 0.10	0.68 ± 0.10	16	6.7 ± 0.4	320	266 ± 28	melting point: 116 to 118 °C; IC50 (σ-1 receptor): 38 nM; Ki (σ-1 receptor): 33.7 ± 5.9 nM; 6-1 receptor/VAChT ratio of the Ki values (VAChT [1]; [3]): higher; 6-2 receptor/VAChT ratio of the Ki values (VAChT [1]; [3]): higher
OC1CCCCC1N1CCC(c2ccccc2I)CC1 (single isomer, unassigned; (-)) [(−)-o-iodovesamicol]	–	–	–	–	–	–	–	–	–	–	–	–	–	Ki (δ-2 receptor): 554 ± 137 nM; Ki (δ-1 receptor): 62.2 ± 12 nM; Ki (VAChT [2]): 15 ± 2.9 nM
